# Target: T1, Human KLK1 (Homo sapiens, UniProt P06870)
# T1 construct: purchased Callbiochem (Calbiochem)
# Assay: Determination of the IC50 for KLK1 (fluorogenic substrate H-DVal-Leu-Arg-AFC)
# Format: biochemical
# Conditions: 37° C.
# Summary of the method: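 Human KLK1 incubated at 37° C with fluorogenic substrate H-DVal-Leu-Arg-AFC and a range of test compound concentrations. Residual activity taken as initial reaction rate from absorbance change at 410 nm; IC50 derived from these rates.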
# T1 sequence (P06870 25-262): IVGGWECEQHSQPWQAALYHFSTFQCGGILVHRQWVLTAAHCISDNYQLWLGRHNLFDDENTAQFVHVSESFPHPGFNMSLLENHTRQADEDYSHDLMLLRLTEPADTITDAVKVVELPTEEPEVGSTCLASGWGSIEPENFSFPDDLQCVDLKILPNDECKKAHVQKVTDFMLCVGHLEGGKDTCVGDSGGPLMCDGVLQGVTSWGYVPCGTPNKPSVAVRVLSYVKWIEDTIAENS
row,SMILES,IC50 [nM]
1,"Cc1nc(N)ccc1CNC(=O)[C@H](Cc1ccc(Cl)c(Cl)c1)NC(=O)[C@H](N)C(C)(C)C [Example 199, (R)-2-Amino-N-[(S)-1-[(6-amino-2-methyl-pyridin-3-ylmethyl)-carbamoyl]-2-(3,4-dichloro-phenyl)-ethyl]-3,3-dimethyl-butyramide]",1.4
2,"Cc1nc(N)ccc1CNC(=O)[C@H](Cc1ccc(Cl)c(Cl)c1)NC(=O)[C@H](N)CC1CCCCC1 [Example 200, (R)-2-Amino-N-[(S)-1-[(6-amino-2-methyl-pyridin-3-ylmethyl)-carbamoyl]-2-(3,4-dichloro-phenyl)-ethyl]-3-cyclohexyl-propionamide]",22.1
3,"Cc1nc(N)ccc1CNC(=O)[C@H](Cc1ccc(Cl)c(Cl)c1)NC(=O)[C@H]1CCCCN1 [Example 201, (R)-Piperidine-2-carboxylic acid [(S)-1-[(6-amino-2-methyl-pyridin-3-ylmethyl)-carbamoyl]-2-(3,4-dichloro-phenyl)-ethyl]-amide]",1.3
4,"Cc1nc(N)ccc1CNC(=O)[C@H](Cc1ccc(F)cc1)NC(=O)[C@H]1CCCN1C [Example 204, (R)-1-Methyl-pyrrolidine-2-carboxylic acid [(S)-1-[(6-amino-2-methyl-pyridin-3-ylmethyl)-carbamoyl]-2-(4-fluoro-phenyl)-ethyl]-amide]",5.9
5,"CCC(C)[C@@H](N)C(=O)N[C@@H](Cc1cccc2ccccc12)C(=O)NCc1cnc(N)c(C)c1 (stereo partly drawn) [Example 209, (R)-2-Amino-3-methyl-pentanoic acid {(S)-1-[(6-amino-5-methyl-pyridin-3-ylmethyl)-carbamoyl]-2-naphthalen-1-yl-ethyl}-amide]",36
6,"CS(=O)(=O)N1CCC[C@@H]1C(=O)N[C@@H](Cc1ccc(Cl)c(Cl)c1)C(=O)NCc1ccc(N)nc1 [Example 210, (R)-1-Methanesulfonyl-pyrrolidine-2-carboxylic acid [(S)-1-[(6-amino-pyridin-3-ylmethyl)-carbamoyl]-2-(3,4-dichloro-phenyl)-ethyl]-amide]",39
7,"CCC(C)[C@@H](NS(C)(=O)=O)C(=O)N[C@@H](Cc1ccc(Cl)c(Cl)c1)C(=O)NCc1ccc(N)nc1 (stereo partly drawn) [Example 211, (R)-2-Methanesulfonylamino-3-methyl-pentanoic acid [(S)-1-[(6-amino-pyridin-3-ylmethyl)-carbamoyl]-2-(3,4-dichloro-phenyl)-ethyl]-amide]",0.29
8,"CCC(C)[C@@H](N)C(=O)N[C@@H](C(=O)NCc1ccc(N)nc1)C(C1CCCCC1)C1CCCCC1 (stereo partly drawn) [Example 214, (R)-2-Amino-3-methyl-pentanoic acid {(R)-1-[(6-amino-pyridin-3-ylmethyl)-carbamoyl]-2,2-dicyclohexyl-ethyl}-amide]",16.9
9,"CC(C)(C)[C@H](N)C(=O)N[C@@H](C(=O)NCc1ccc(N)nc1)C(C1CCCCC1)C1CCCCC1 [Example 217, (S)-2-Amino-N-{(R)-1-[(6-amino-pyridin-3-ylmethyl)-carbamoyl]-2,2-dicyclohexyl-ethyl}-3,3-dimethyl-butyramide]",29.3
10,"CCC(C)[C@H](NC)C(=O)N[C@@H](C(=O)NCc1ccc(N)nc1)C(C1CCCCC1)C1CCCCC1 (stereo partly drawn) [Example 219, (S)-3-Methyl-2-methylamino-pentanoic acid {(R)-1-[(6-amino-pyridin-3-ylmethyl)-carbamoyl]-2,2-dicyclohexyl-ethyl}-amide]",3.6
11,"NCC(=O)N[C@@H](C(=O)NCc1ccc(N)nc1)C(C1CCCCC1)C1CCCCC1 [Example 220, (R)-2-(2-Amino-acetylamino)-N-(6-amino-pyridin-3-ylmethyl)-3,3-dicyclohexyl-propionamide]",55.5
12,"CN(C)CC(=O)N[C@@H](C(=O)NCc1ccc(N)nc1)C(C1CCCCC1)C1CCCCC1 [Example 222, (R)—N-(6-Amino-pyridin-3-ylmethyl)-3,3-dicyclohexyl-2-(2-dimethylamino-acetylamino)-propionamide]",39.7
13,"CN1CCC[C@H]1C(=O)N[C@@H](C(=O)NCc1ccc(N)nc1)C(C1CCCCC1)C1CCCCC1 [Example 223, (S)-1-Methyl-pyrrolidine-2-carboxylic acid {(R)-1-[(6-amino-pyridin-3-ylmethyl)-carbamoyl]-2,2-dicyclohexyl-ethyl}-amide]",17.4

# Continued by falling IC50, values first:
row,IC50 [nM],SMILES
1,50.5,"CNCC(=O)N[C@@H](C(=O)NCc1ccc(N)nc1)C(C1CCCCC1)C1CCCCC1 [Example 221, (R)—N-(6-Amino-pyridin-3-ylmethyl)-3,3-dicyclohexyl-2-(2-methylamino-acetylamino)-propionamide]"
2,35.3,"CN[C@@H](C)C(=O)N[C@@H](C(=O)NCc1ccc(N)nc1)C(C1CCCCC1)C1CCCCC1 [Example 218, (S)—N-{(R)-1-[(6-Amino-pyridin-3-ylmethyl)-carbamoyl]-2,2-dicyclohexyl-ethyl}-2-methylamino-propionamide]"
3,32.1,"CCC(C)[C@@H](N)C(=O)N[C@@H](CC1CCCC2CCCCC21)C(=O)NCc1c(C)cc(N)nc1C (stereo partly drawn) [Example 208, (R)-2-Amino-3-methyl-pentanoic acid [(S)-1-[(6-amino-2,4-dimethyl-pyridin-3-ylmethyl)-carbamoyl]-2-(decahydro-naphthalen-1-yl)-ethyl]-amide]"
4,29.8,"C[C@H](C(=O)N[C@@H](Cc1ccc(Cl)c(Cl)c1)C(=O)NCc1ccc(N)nc1)N(C)S(C)(=O)=O [Example 212, (R)—N-[(S)-1-[(6-Amino-pyridin-3-ylmethyl)-carbamoyl]-2-(3,4-dichloro-phenyl)-ethyl]-2-(methanesulfonyl-methyl-amino)-propionamide]"
5,24.4,"Nc1ccc(CNC(=O)[C@H](NC(=O)[C@@H](N)Cc2ccccc2)C(C2CCCCC2)C2CCCCC2)cn1 [Example 216, (S)-2-Amino-N-{(R)-1-[(6-amino-pyridin-3-ylmethyl)-carbamoyl]-2,2-dicyclohexyl-ethyl}-3-phenyl-propionamide]"
6,22.5,"Cc1nc(N)ccc1CNC(=O)[C@H](Cc1ccc(Cl)c(Cl)c1)NC(=O)[C@H]1CCc2ccccc2N1 [Example 202, (R)-1,2,3,4-Tetrahydro-quinoline-2-carboxylic acid [(S)-1-[(6-amino-2-methyl-pyridin-3-ylmethyl)-carbamoyl]-2-(3,4-dichloro-phenyl)-ethyl]-amide]"
7,12.6,"Nc1ccc(CNC(=O)[C@H](NC(=O)[C@@H]2CCCN2)C(C2CCCCC2)C2CCCCC2)cn1 [Example 215, (S)-Pyrrolidine-2-carboxylic acid {(R)-1-[(6-amino-pyridin-3-ylmethyl)-carbamoyl]-2,2-dicyclohexyl-ethyl}-amide]"
8,6.7,"Cc1nc(N)ccc1CNC(=O)[C@H](Cc1ccc(F)c(F)c1)NC(=O)[C@H]1CCCN1C [Example 205, (R)-1-Methyl-pyrrolidine-2-carboxylic acid [(S)-1-[(6-amino-2-methyl-pyridin-3-ylmethyl)-carbamoyl]-2-(3,4-difluoro-phenyl)-ethyl]-amide]"
9,4.5,"CCC(C)[C@@H](NC)C(=O)N[C@@H](Cc1cccc2ccccc12)C(=O)NCc1ccc(N)nc1C (stereo partly drawn) [Example 203, (R)-3-Methyl-2-methylamino-pentanoic acid {(S)-1-[(6-amino-2-methyl-pyridin-3-ylmethyl)-carbamoyl]-2-naphthalen-1-yl-ethyl}-amide]"

# Reference: patent US20100076015A1, “Aminopyridine Derivatives” (VANTIA LIMITED, priority 2008, published 2010)
